Data from ChEMBL document CHEMBL1123572, “Synthesis and antiarrhythmic activity of novel 3-alkyl-1-[omega-[4-[(alkylsulfonyl)amino]phenyl]-omega- hydroxyalkyl]-1H-imidazolium salts and related compounds. 2” (1987).
Where “and” joins values, the source holds several entries; their conditions need not be identical. Identical values can stand only once.

How the values were obtained:
Canis familiaris [1] = species on record: Canis familiaris; assay: In vitro activity in isolated canine cardiac Purkinje fibers given as 20 percent increase or decrease in action potential duration; format: functional, Canis lupus familiaris, Purkinje fiber
Canis familiaris [2] = species on record: Canis familiaris; assay: In vitro activity in isolated canine cardiac Purkinje fibers given as maximum change in APD95 from control value at 100 uM of concentration; format: functional, Canis lupus familiaris, Purkinje fiber
Canis familiaris [3] = species on record: Canis familiaris; assay: In vitro electrophysiological activity in isolated canine cardiac ventricular muscle tissue given as maximum change in FRP from control value at 100 uM concentration; format: functional, Canis lupus familiaris
Canis familiaris [4] = species on record: Canis familiaris; assay: In vitro activity in isolated canine cardiac ventricular muscle tissue given as 20 percent increase or decrease in FRP (functional refractory period); parameters: species or system Canis lupus familiaris
Canis familiaris [5] = assay: The compound was evaluated the change in heart rate at 10 mg/kg active dose; format: functional, Canis lupus familiaris
Canis familiaris [6] = assay: The compound was evaluated the change in functional refractory period at 10 mg/kg active dose; parameters: species or system Canis lupus familiaris
Canis familiaris [7] = species on record: Canis familiaris; assay: The compound was evaluated for the change in heart rate at MED for 0.1-10 dose range in PES model; format: functional, Canis lupus familiaris
Canis familiaris [8] = species on record: Canis familiaris; assay: The compound was evaluated for the mean effective dose for antiarrhythmic efficacy in PES model; format: functional; settings: Canis lupus familiaris, Heart; read-out: MED
Canis familiaris [9] = species on record: Canis familiaris; assay: In vitro activity in isolated canine cardiac Purkinje fibers given as maximum change in APD95 from control value at 10 uM of concentration; format: functional, Canis lupus familiaris, Purkinje fiber
Canis familiaris [10] = species on record: Canis familiaris; assay: The compound was evaluated for the change in blood pressure at MED for 0.1-10 dose range in PES model; format: functional, Canis lupus familiaris
Canis familiaris [11] = assay: The compound was evaluated the change in blood pressure at 10 mg/kg active dose; format: functional, Canis lupus familiaris
Canis familiaris [12] = species on record: Canis familiaris; assay: The compound was evaluated for the change in blood pressure at MED for 0.1-30 dose range in PES model; format: functional, Canis lupus familiaris
Canis familiaris [13] = species on record: Canis familiaris; assay: The compound was evaluated for the change in heart rate at MED for 0.1-30 dose range in PES model; format: functional, Canis lupus familiaris
Canis familiaris [14] = species on record: Canis familiaris; assay: The compound was evaluated for the change in blood pressure at MED for 0.3-30 dose range in PES model; format: functional, Canis lupus familiaris
Canis familiaris [15] = species on record: Canis familiaris; assay: The compound was evaluated for the change in heart rate at MED for 0.3-30 dose range in PES model.; format: functional, Canis lupus familiaris
Canis familiaris [16] = species on record: Canis familiaris; assay: In vitro electrophysiological activity in isolated canine cardiac ventricular muscle tissue given as maximum change in FRP from control value at 100 uM concentration; NR = Not reached; format: functional; settings: Canis lupus familiaris
Canis familiaris [17] = species on record: Canis familiaris; assay: The compound was evaluated for the change in heart rate at MED for 0.3-10 dose range in PES model; format: functional, Canis lupus familiaris
Canis familiaris [18] = species on record: Canis familiaris; assay: The compound was evaluated for the change in blood pressure at MED for 0.3-10 dose range in PES model; format: functional, Canis lupus familiaris

| SMILES | C20 APD95 (Canis familiaris [1]) [µM] | APD95 (Canis familiaris [2]) [%] | FRP (Canis familiaris [3]) | C20 FRP (Canis familiaris [4]) | also measured |
| --- | --- | --- | --- | --- | --- |
| Cn1cc[n+](C)c1C(O)c1ccc(NS(C)(=O)=O)cc1.[I-] (configuration not stated) | 20.7 | 37 | 17% | – | – |
| CS(=O)(=O)Nc1ccc(C(=O)C[n+]2ccsc2)cc1.[Cl-] | 3.1 | 80 | 17% | 10 µM | – |
| CCCCCCC[N+](CC)(CC)CCCCc1ccc(Cl)cc1 [CLOFILIUM] | 0.26 | – | 7% | – | HR (Canis familiaris [5]): -18%; FRP (Canis familiaris [6]): 22%; HR (Canis familiaris [7]): -12%; minimal effective dose (Canis familiaris [8]): 0.63 mg/kg; APD95 (Canis familiaris [9]): 39%; BP (Canis familiaris [10]): 2%; BP (Canis familiaris [11]): -4% |
| CC(C)NCC(O)c1ccc(NS(C)(=O)=O)cc1 (configuration not stated) [SOTALOL] | 14.4 | 48 | 23% | 24.7 µM | HR (Canis familiaris [5]): -11%; FRP (Canis familiaris [6]): 16%; minimal effective dose (Canis familiaris [8]): 1.4 mg/kg; BP (Canis familiaris [12]): -23%; BP (Canis familiaris [11]): 8%; HR (Canis familiaris [13]): -23% |
| C[n+]1ccn(/C=C/c2ccc(O)cc2)c1.[Br-] | 10.2 | 27 | – | – | APD95 (Canis familiaris [9]): 23% and 20% |
| CC1=NCCN1CC(O)c1ccc(NS(C)(=O)=O)cc1.Cl (configuration not stated) | 0.6 | 63 | 42% and 38% | 1.1 µM and 1.9 µM | HR (Canis familiaris [5]): -23%; FRP (Canis familiaris [6]): 22%; BP (Canis familiaris [14]): -1%; minimal effective dose (Canis familiaris [8]): 2 mg/kg; BP (Canis familiaris [11]): 2%; HR (Canis familiaris [15]): -21% |
| Cc1n2c(c[n+]1C)C(c1ccc(NS(C)(=O)=O)cc1)=CCC2.[I-] | 2.8 | 38 | 40% | 2.9 µM | – |
| CC(C(=O)c1ccc(NS(C)(=O)=O)cc1)n1cc[n+](C)c1.[Cl-] (configuration not stated) | 3 | 65 | 22% | 7.7 µM | – |
| Cc1n2c(c[n+]1C)C(c1ccc(NS(C)(=O)=O)cc1)CCC2.[I-] (configuration not stated) | 46.6 | 27 | – | – | FRP (Canis familiaris [16]): Not reached |
| C[n+]1ccn(CC(C)(O)c2ccc(NS(C)(=O)=O)cc2)c1.[Cl-] (configuration not stated) | 1.5 | 71 | 29% | 24.3 µM | – |
| C[n+]1ccn(CCc2ccc(O)cc2)c1.[Cl-] | 6.2 | 20 | 7% | 50.1 µM | APD95 (Canis familiaris [9]): 23% |
| CC(C(O)c1ccc(NS(C)(=O)=O)cc1)n1cc[n+](C)c1.[Cl-] (configuration not stated) | 4.2 | 36 | 31% | 11.2 µM | – |
| C[n+]1ccn(CC(O)c2ccc(NS(C)(=O)=O)cc2)c1.[Cl-] (configuration not stated) | 1.6 | 50 | 31% | 5.9 µM | HR (Canis familiaris [5]): -10%; FRP (Canis familiaris [6]): 21%; minimal effective dose (Canis familiaris [8]): 6.5 mg/kg; HR (Canis familiaris [17]): -23%; BP (Canis familiaris [18]): 0%; BP (Canis familiaris [11]): 5% |
| CC1=NCCN1CC(=O)c1ccc(NS(C)(=O)=O)cc1 | 1.3 | 74 | 38% | 6.3 µM | – |
